The supplement of paper PMC10307832

Key:
Experiment in all cases: relative viability (nuclei count vs DMSO), 5 days (fraction); higher = more cells survive
[1] = compound: C[C@H]([C@@H](C(=O)N)NC(=O)[C@@H]1CSSC[C@@H](C(=O)N[C@H](C(=O)N[C@@H](C(=O)N[C@H](C(=O)N1)CCCCN)CC2=CNC3=CC=CC=C32)CC4=CC=C(C=C4)O)NC(=O)[C@@H](CC5=CC=CC=C5)N)O [CAP-232] + COc1cccc2cc(-c3nc([C@H]4CC[C@H](C(=O)O)CC4)n4ncnc(N)c34)[nH]c12 [OSI-027] (partner 0.5 µM)
How it was run: (§1)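 Cells from lung cancer lines were seeded into 1536-well plates and, one day later, dosed by pin tool. Treatments were either a single drug or a fixed dose of an anchor drug with five library-drug doses (not always all listed) in √10 steps. After 5 days, nuclei were stained in a one-step fixation (final 0.05% Triton X-100, 1% formaldehyde, 1 ug/ml Hoechst) and counted on 4× images, and relative viability is the treated-to-vehicle nuclei ratio, as the median of duplicate plates.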

[2] = compound: C[C@H]([C@@H](C(=O)N)NC(=O)[C@@H]1CSSC[C@@H](C(=O)N[C@H](C(=O)N[C@@H](C(=O)N[C@H](C(=O)N1)CCCCN)CC2=CNC3=CC=CC=C32)CC4=CC=C(C=C4)O)NC(=O)[C@@H](CC5=CC=CC=C5)N)O [CAP-232] + CC(=O)c1c(C)c2cnc(Nc3ccc(N4CCNCC4)cn3)nc2n(C2CCCC2)c1=O [Palbociclib] (partner 0.5 µM)
How it was run: as §1

[3] = compound: C[C@H]([C@@H](C(=O)N)NC(=O)[C@@H]1CSSC[C@@H](C(=O)N[C@H](C(=O)N[C@@H](C(=O)N[C@H](C(=O)N1)CCCCN)CC2=CNC3=CC=CC=C32)CC4=CC=C(C=C4)O)NC(=O)[C@@H](CC5=CC=CC=C5)N)O [CAP-232] + Nc1nc2[nH]cc(CCc3ccc(C(=O)N[C@@H](CCC(=O)O)C(=O)O)cc3)c2c(=O)[nH]1 [Pemetrexed] (partner 0.2 µM)
How it was run: as §1

[4] = compound: C[C@H]([C@@H](C(=O)N)NC(=O)[C@@H]1CSSC[C@@H](C(=O)N[C@H](C(=O)N[C@@H](C(=O)N[C@H](C(=O)N1)CCCCN)CC2=CNC3=CC=CC=C32)CC4=CC=C(C=C4)O)NC(=O)[C@@H](CC5=CC=CC=C5)N)O [CAP-232] + Cc1cc(Nc2cc(N3CCN(C)CC3)nc(Sc3ccc(NC(=O)C4CC4)cc3)n2)n[nH]1 [Tozasertib] (partner 0.1 µM)
How it was run: as §1

[5] = compound: C[C@H]([C@@H](C(=O)N)NC(=O)[C@@H]1CSSC[C@@H](C(=O)N[C@H](C(=O)N[C@@H](C(=O)N[C@H](C(=O)N1)CCCCN)CC2=CNC3=CC=CC=C32)CC4=CC=C(C=C4)O)NC(=O)[C@@H](CC5=CC=CC=C5)N)O [CAP-232] + CC(C)C[C@H](NC(=O)[C@H](Cc1ccccc1)NC(=O)c1cnccn1)B(O)O [Bortezomib] (partner 0.002 µM)
How it was run: as §1

Cell Line	relative viability ([1]; first compound 0.4 µM)	relative viability ([1]; first compound 1.265 µM)	relative viability ([1]; first compound 4 µM)	relative viability ([1]; first compound 12.65 µM)	relative viability ([2]; first compound 0.4 µM)	relative viability ([2]; first compound 1.265 µM)	relative viability ([2]; first compound 4 µM)	relative viability ([2]; first compound 12.65 µM)	relative viability ([3]; first compound 0.4 µM)	relative viability ([3]; first compound 1.265 µM)	relative viability ([3]; first compound 4 µM)	relative viability ([3]; first compound 12.65 µM)	relative viability ([4]; first compound 0.4 µM)	relative viability ([4]; first compound 1.265 µM)	relative viability ([4]; first compound 4 µM)	relative viability ([4]; first compound 12.65 µM)	relative viability ([5]; first compound 0.4 µM)	relative viability ([5]; first compound 1.265 µM)	relative viability ([5]; first compound 4 µM)	relative viability ([5]; first compound 12.65 µM)
LC-2-ad	0.954	0.852	0.756	0.559	0.478	0.517	0.473	0.513	0.278	0.269	0.287	0.228	0.518	0.478	0.439	0.267	1.05	1.01	1.11	1
HCC-827	0.896	0.786	0.831	0.637	0.423	0.498	0.461	0.514	0.266	0.277	0.222	0.231	0.525	0.41	0.417	0.484	1.19	1.06	1.03	1
SW 1573	0.612	0.785	0.678	0.111	0.313	0.392	0.406	0.201	0.801	0.879	0.789	0.103	0.185	0.207	0.189	0.126	0.951	1.03	0.927	0.974
COR-L 105	0.852	0.646	0.646	0.387	0.395	0.401	0.384	0.387	1.44	0.964	1.18	0.783	0.346	0.387	0.379	0.323	0.913	0.742	0.657	0.567
LOU-NH91	0.756	0.775	0.72	0.675	0.525	0.482	0.522	0.39	0.473	0.378	0.392	0.275	0.574	0.68	0.618	0.511	0.528	0.458	0.463	0.549
NCI-H661	0.757	0.692	0.753	0.545	0.415	0.403	0.433	0.35	0.885	0.872	0.98	0.827	0.367	0.372	0.347	0.329	0.658	0.809	0.733	0.851
LU99A	0.263	0.267	0.276	0.313	0.392	0.375	0.407	0.505	0.181	0.139	0.182	0.177	0.253	0.263	0.296	0.287	1.14	1.1	1.18	1.05
NCI-H1650	0.637	0.491	0.756	0.215	0.306	0.304	0.38	0.243	0.436	0.385	0.451	0.336	0.427	0.38	0.391	0.213	0.196	0.209	0.214	0.117
UMC-11	0.474	0.484	0.517	0.39	0.346	0.349	0.311	0.341	0.824	0.843	0.821	0.613	0.202	0.191	0.214	0.17	1.11	0.719	1.11	1.1
HOP-62	1.03	0.745	0.756	0.781	0.491	0.42	0.436	0.386	0.331	0.322	0.341	0.295	0.347	0.388	0.387	0.406	0.924		1.11	0.699
LCLC-103H	0.481	0.375	0.496	0.464	0.469	0.429	0.487	0.485	0.443	0.441	0.431	0.445	0.544	0.47	0.479	0.572	1.33	0.927	1.16	1
NCI-H1734	0.558	0.59	0.56	0.406	0.34	0.336	0.368	0.233	0.44	0.402	0.402	0.307	0.248	0.272	0.266	0.197	0.919	0.902	1.06	0.74
EKVX	0.724	0.779	0.667	0.64	0.387	0.339	0.262	0.262	0.392	0.375	0.413	0.33	0.352	0.376	0.422	0.31	1.15	0.931	0.925	0.917
HARA	0.436	0.554	0.613	0.44	0.236	0.31	0.246	0.265	0.281	0.243	0.268	0.215	0.0986	0.0955	0.144	0.0866	1.2	1.2	1.13	1.17
